Measured values as given in patent US11168055B2, “Endocyclic thiamidinoamide-arylamide compound and use thereof for treating hepatitis B” (SHANGHAI LONGWOOD BIOPHARMACEUTICALS CO., LTD., priority 2017, dated 2021).
Like-named read-outs stand apart in the source and are kept apart here.

Legend:
[1] = Determination of cytotoxicity (HepG2 cells, resazurin assay, 4 days); type: cell-based; settings: human, read-out: Experiment 3 Cytotoxicity CC50
Description: Experiment 3: Determination of Cytotoxicity
The cytotoxicity of the test compound was tested using HepG2 cells. The cells were incubated for 4 days in the presence of the test compound. Cell activity was assessed using the resazurin assay.

[2] = test system: HBV DNA in the supernatant of HepG2.2.15; test: Determination of anti-HBV activity in HepG2.2.15 cell (HBV DNA in supernatant by qPCR); type: cell-based, Hepatitis B virus
[3] = HepG2.2.15 cells, HBV DNA, read-out: Experiment 2 Cell experiment EC50
[4] = Hepatitis B virus, HepG2.2.15, HepG2.2.15 cells, HBV DNA, read-out: Experiment 2 Cell experiment EC50

In the case of `CN=S1(=O)N[C@@H](C(C)C)CCc2c1nn(C)c2C(=O)Nc1ccc(F)c(C#N)c1` (single isomer, unassigned) [Compound 90a1], the CC50 at 4 days [1] is reported as over 30 µM and the EC50 [2, 3] is reported as 0.1 to 1 µM.
For `CC(C)[C@H]1C=Cc2c(cn(C)c2C(=O)Nc2cc(F)c(F)c(F)c2)S(=N)(=O)N1` (single isomer, unassigned) [Compound 10c1], the CC50 at 4 days [1] was over 30 µM and the EC50 [2, 3] was 0.1 to 1 µM.
In the case of `CC(C)[C@H]1C=Cc2c(nn(C)c2C(=O)Nc2ccc(F)c(C#N)c2)S(=N)(=O)N1` (single isomer, unassigned) [Compound 70a1], the CC50 at 4 days [1] is reported as over 30 µM and the EC50 [2, 3] is reported as 0.1 to 1 µM.
Compound `CC(C)[C@H]1C=Cc2c(cn(C)c2C(=O)Nc2ccc(F)c(C#N)c2)S(=N)(=O)N1` (single isomer, unassigned) [Compound 10b1] has a CC50 at 4 days [1] of over 30 µM and an EC50 ([2]; Hepatitis B virus, HepG2.2.15, read-out: Experiment 2 Cell experiment EC50) of 0.1 to 1 µM.
Work on `CC(C)[C@H]1CCc2c(cn(C)c2C(=O)Nc2cc(F)c(F)c(F)c2)S(=N)(=O)N1` (single isomer, unassigned) [Compound 20c1] yielded a CC50 at 4 days [1] of over 30 µM and an EC50 [2, 3] of 0.1 to 1 µM.
`CC(C)[C@H]1CCc2c(nn(C)c2C(=O)Nc2ccc(F)c(C#N)c2)S(=N)(=O)N1` (single isomer, unassigned) [Compound 80a1] showed a CC50 at 4 days [1] of over 30 µM and an EC50 [2, 3] of 0.1 to 1 µM.
For `C[C@@H](OCc1ccccc1)[C@H]1C=Cc2c(cn(C)c2C(=O)Nc2cc(F)c(F)c(F)c2)S(=N)(=O)N1` (single isomer, unassigned) [Compound 10ddd1], the CC50 at 4 days [1] was over 30 µM and the EC50 [2, 3] was 0.1 to 1 µM.
In the case of `CC(C)C[C@H]1CCc2c(nn(C)c2C(=O)Nc2ccc(F)c(C#N)c2)S(=N)(=O)N1` (single isomer, unassigned) [Compound 80b1], the CC50 at 4 days [1] is reported as over 30 µM and the EC50 [2, 3] is reported as 0.1 to 1 µM.
`CC(O)[C@H]1C=Cc2c(cn(C)c2C(=O)Nc2ccc(F)c(F)c2)S(=N)(=O)N1` (single isomer, unassigned) [Compound 30a1] showed a CC50 at 4 days [1] of over 30 µM and an EC50 [2, 4] of 0.1 to 1 µM.
In the case of `CCN=S1(=O)N[C@@H](CC(C)C)C=Cc2c1cn(C)c2C(=O)Nc1ccc(F)c(C#N)c1` (single isomer, unassigned) [Compound 50t1], the CC50 at 4 days [1] is reported as over 30 µM and the EC50 [2, 3] is reported as 0.1 to 1 µM.
In the case of `Cn1cc2c(c1C(=O)Nc1ccc(F)c(F)c1)C=C[C@H](CO)NS2(=N)=O` (single isomer, unassigned) [Compound 30g1], the CC50 at 4 days [1] is reported as over 30 µM and the EC50 [2, 4] is reported as 0.1 to 1 µM.
With `Cn1cc2c(c1C(=O)Nc1cc(F)nc(C#N)c1)CC[C@H](C1CCCCC1)NS2(=N)=O` (single isomer, unassigned) [Compound 20dd1] the CC50 at 4 days [1] was over 30 µM and the EC50 [2, 3] was 0.1 to 1 µM.
Work on `COc1ccc(CC[C@H](C)[C@H]2C=Cc3c(cn(C)c3C(=O)Nc3cc(F)nc(C#N)c3)S(=N)(=O)N2)cc1` (single isomer, unassigned) [Compound 10vvv1] yielded a CC50 at 4 days [1] of over 30 µM and an EC50 [2, 3] of 0.1 to 1 µM.
For `Cn1cc2c(c1C(=O)Nc1ccnc(C(F)F)c1)CC[C@H](C1CCCCC1)NS2(=N)=O` (single isomer, unassigned) [Compound 20ee1], the CC50 at 4 days [1] was over 30 µM and the EC50 [2, 3] was 0.1 to 1 µM.
With `CC(C)C[C@H]1C=Cc2c(cn(C)c2C(=O)Nc2ccc(F)c(C#N)c2)S(=O)(=NC(C)C)N1` (single isomer, unassigned) [Compound 50u1] the CC50 at 4 days [1] was over 30 µM and the EC50 [2, 3] was 0.1 to 1 µM.
In the case of `CC(C)C[C@H]1C=Cc2c(cn(C)c2C(=O)Nc2ccc(F)c(C#N)c2)S(=O)(=NC2CC2)N1` (single isomer, unassigned) [Compound 50v1], the CC50 at 4 days [1] is reported as over 30 µM and the EC50 [2, 3] is reported as 0.1 to 1 µM.
`CN=S1(=O)N[C@@H](CC(C)C)CCc2c1cn(C)c2C(=O)Nc1ccc(F)c(C#N)c1` (single isomer, unassigned) [Compound 60v1] gave a CC50 at 4 days [1] of over 30 µM and an EC50 [2, 3] of 0.1 to 1 µM.
Work on `CC(C)[C@H]1C=Cc2c(cn(C)c2C(=O)Nc2cc(F)nc(C#N)c2)S(=N)(=O)N1` (single isomer, unassigned) [Compound 10e1] yielded a CC50 at 4 days [1] of over 30 µM and an EC50 [2, 3] of 0.1 to 1 µM.
For `Cn1cc2c(c1C(=O)Nc1ccc(F)c(F)c1)C=C[C@H](C1CCCCC1)NS2(=N)=O` (single isomer, unassigned) [Compound 10bb1], the CC50 at 4 days [1] was over 30 µM and the EC50 [2, 3] was 0.1 to 1 µM.
Work on `CC(O)[C@H]1CCc2c(cn(C)c2C(=O)Nc2ccc(F)c(F)c2)S(=N)(=O)N1` (single isomer, unassigned) [Compound 40a1] yielded a CC50 at 4 days [1] of over 30 µM and an EC50 [2, 4] of 0.1 to 1 µM.
`CC(C)[C@H]1CCc2c(cn(C)c2C(=O)Nc2ccc(F)c(F)c2)S(=N)(=O)N1` (single isomer, unassigned) [Compound 20a1] gave a CC50 at 4 days [1] of over 30 µM and an EC50 [2, 3] of 0.1 to 1 µM.
Work on `CN=S1(=O)N[C@@H](CC(C)C)CCc2c1nn(C)c2C(=O)Nc1ccc(F)c(C#N)c1` (single isomer, unassigned) [Compound 90b1] yielded a CC50 at 4 days [1] of over 30 µM and an EC50 [2, 3] of 0.1 to 1 µM.
`CC(C)[C@@H]1C=Cc2c(cn(C)c2C(=O)Nc2ccc(F)c(C#N)c2)S(=N)(=O)N1` (single isomer, unassigned) [Compound 10h1] showed a CC50 at 4 days [1] of over 30 µM and an EC50 [2, 4] of over 1 µM.
Compound `CC(C)[C@H]1C=Cc2c(cn(C)c2C(=O)Nc2ccc(F)c(F)c2)S(=N)(=O)N1` (single isomer, unassigned) [Compound 10a1] has a CC50 at 4 days [1] of over 30 µM and an EC50 [2, 3] of 0.1 to 1 µM.
`C[C@@H](OCc1ccccc1)[C@H]1C=Cc2c(cn(C)c2C(=O)Nc2ccc(F)c(C#N)c2)S(=N)(=O)N1` (single isomer, unassigned) [Compound 10ccc1] showed a CC50 at 4 days [1] of over 30 µM and an EC50 [2, 3] of 0.1 to 1 µM.
Compound `CN=S1(=O)N[C@@H](CC(C)C)C=Cc2c1cn(C)c2C(=O)Nc1ccc(F)c(C#N)c1` (single isomer, unassigned) [Compound 50s1] has a CC50 at 4 days [1] of over 30 µM and an EC50 [2, 3] of 0.1 to 1 µM.
`Cn1cc2c(c1C(=O)Nc1ccc(F)c(C#N)c1)C=C[C@H](C1CCCCC1)NS2(=N)=O` (single isomer, unassigned) [Compound 10cc1] showed a CC50 at 4 days [1] of over 30 µM and an EC50 [2, 3] of 0.1 to 1 µM.
`CCN=S1(=O)N[C@@H](CC(C)C)CCc2c1cn(C)c2C(=O)Nc1ccc(F)c(C#N)c1` (single isomer, unassigned) [Compound 60w1] gave a CC50 at 4 days [1] of over 30 µM and an EC50 [2, 3] of 0.1 to 1 µM.
Work on `Cn1cc2c(c1C(=O)Nc1ccc(F)c(F)c1)CC[C@H](CO)NS2(=N)=O` (single isomer, unassigned) [Compound 40g1] yielded a CC50 at 4 days [1] of over 30 µM and an EC50 [2, 4] of 0.1 to 1 µM.
Work on `CC(C)[C@H]1C=Cc2c(cn(C)c2C(=O)Nc2ccnc(C(F)F)c2)S(=N)(=O)N1` (single isomer, unassigned) [Compound 10f1] yielded a CC50 at 4 days [1] of over 30 µM and an EC50 [2, 3] of 0.1 to 1 µM.
For `CC(O)[C@H]1C=Cc2c(cn(C)c2C(=O)Nc2ccc(F)c(C#N)c2)S(=N)(=O)N1` (single isomer, unassigned) [Compound 30b1], the CC50 at 4 days [1] was over 30 µM and the EC50 [2, 4] was 0.1 to 1 µM.
`CC(C)C[C@H]1C=Cc2c(cn(C)c2C(=O)Nc2cc(F)nc(C#N)c2)S(=N)(=O)N1` (single isomer, unassigned) [Compound 10w1] showed a CC50 at 4 days [1] of over 30 µM and an EC50 [2, 3] of 0.1 to 1 µM.
Work on `CC(C)[C@@H]1C=Cc2c(cn(C)c2C(=O)Nc2ccc(F)c(F)c2)S(=N)(=O)N1` (single isomer, unassigned) [Compound 10g1] yielded a CC50 at 4 days [1] of over 30 µM and an EC50 [2, 3] of 0.1 to 1 µM.
With `CCN=S1(=O)N[C@@H](C(C)C)CCc2c1cn(C)c2C(=O)Nc1ccc(F)c(C#N)c1` (single isomer, unassigned) [Compound 60g1] the CC50 at 4 days [1] was over 30 µM and the EC50 [2, 3] was 0.1 to 1 µM.
With `CC(C)C[C@H]1CCc2c(cn(C)c2C(=O)Nc2ccc(F)c(C#N)c2)S(=O)(=NC(C)C)N1` (single isomer, unassigned) [Compound 60x1] the CC50 at 4 days [1] was over 30 µM and the EC50 [2, 3] was 0.1 to 1 µM.
For `CC(O)[C@H]1CCc2c(cn(C)c2C(=O)Nc2ccc(F)c(C#N)c2)S(=N)(=O)N1` (single isomer, unassigned) [Compound 40b1], the CC50 at 4 days [1] was over 30 µM and the EC50 [2, 4] was 0.1 to 1 µM.
`CC(C)C[C@H]1C=Cc2c(nn(C)c2C(=O)Nc2ccc(F)c(C#N)c2)S(=N)(=O)N1` (single isomer, unassigned) [Compound 70b1] showed a CC50 at 4 days [1] of over 30 µM and an EC50 [2, 3] of 0.1 to 1 µM.
Compound `CN=S1(=O)N[C@@H](C(C)C)CCc2c1cn(C)c2C(=O)Nc1ccc(F)c(F)c1` (single isomer, unassigned) [Compound 60a1] has a CC50 at 4 days [1] of over 30 µM and an EC50 [2, 3] of 0.1 to 1 µM.
Compound `CC(O)[C@H]1C=Cc2c(cn(C)c2C(=O)Nc2cc(F)c(F)c(F)c2)S(=N)(=O)N1` (single isomer, unassigned) [Compound 30c1] has a CC50 at 4 days [1] of over 30 µM and an EC50 [2, 4] of 0.1 to 1 µM.
In the case of `CC(C)[C@H]1CCc2c(cn(C)c2C(=O)Nc2ccc(F)c(C#N)c2)S(=N)(=O)N1` (single isomer, unassigned) [Compound 20b1], the CC50 at 4 days [1] is reported as over 30 µM and the EC50 [2, 3] is reported as 0.1 to 1 µM.
For `CC[C@H](C)[C@H]1C=Cc2c(cn(C)c2C(=O)Nc2ccc(F)c(C#N)c2)S(=N)(=O)N1` (single isomer, unassigned) [Compound 10o1], the CC50 at 4 days [1] was over 30 µM and the EC50 [2, 3] was 0.1 to 1 µM.
`C[C@@H](OCc1ccccc1)[C@H]1CCc2c(cn(C)c2C(=O)Nc2ccc(F)c(C#N)c2)S(=N)(=O)N1` (single isomer, unassigned) [Compound 20ccc1] gave a CC50 at 4 days [1] of over 30 µM and an EC50 [2, 4] of 0.0001 to 0.1 µM.
In the case of `CC[C@H](C)[C@H]1C=Cc2c(cn(C)c2C(=O)Nc2ccc(F)c(F)c2)S(=N)(=O)N1` (single isomer, unassigned) [Compound 10n1], the CC50 at 4 days [1] is reported as over 30 µM and the EC50 [2, 3] is reported as 0.1 to 1 µM.
`CN=S1(=O)N[C@@H](C(C)C)C=Cc2c1cn(C)c2C(=O)Nc1ccc(F)c(F)c1` (single isomer, unassigned) [Compound 50a1] gave a CC50 at 4 days [1] of over 30 µM and an EC50 [2, 3] of 0.1 to 1 µM.
`CC(C)C[C@H]1CCc2c(cn(C)c2C(=O)Nc2ccc(F)c(C#N)c2)S(=O)(=NC2CC2)N1` (single isomer, unassigned) [Compound 60y1] showed a CC50 at 4 days [1] of over 30 µM and an EC50 [2, 3] of 0.1 to 1 µM.
With `COc1ccc(CC[C@H](C)[C@H]2CCc3c(cn(C)c3C(=O)Nc3cc(F)c(F)c(F)c3)S(=N)(=O)N2)cc1` (single isomer, unassigned) [Compound 20ttt1] the CC50 at 4 days [1] was over 30 µM and the EC50 [2, 3] was 0.1 to 1 µM.
